From US4563527A, “Amidine compounds” (Torii & Co., Ltd., priority 1984, dated 1986)
Read-outs that look alike come from different tables or passages of the source.

Key:
[1] = target: Thrombin (Homo sapiens, UniProt P00734); experiment: biochemical; details: for IC50: read-out: ID50 thrombin
[2] = target: T1, Trypsin (Bos taurus, UniProt P00760); experiment: Anti-trypsin activity (hydrolysis of TAME); type: biochemical; details: molar concentration inhibiting 50% of TAME hydrolysis; read-out: ID50 trypsin
T1 sequence (P00760 24-246): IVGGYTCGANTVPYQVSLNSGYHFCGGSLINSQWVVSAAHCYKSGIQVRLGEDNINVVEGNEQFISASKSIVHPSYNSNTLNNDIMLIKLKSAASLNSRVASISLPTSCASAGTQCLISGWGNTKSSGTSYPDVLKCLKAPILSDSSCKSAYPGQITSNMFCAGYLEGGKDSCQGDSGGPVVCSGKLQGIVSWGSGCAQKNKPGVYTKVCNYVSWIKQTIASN
Procedure: (§1) The anti-trypsin, anti-plasmin, anti-kallikrein and anti-thrombin activities were determined according to the method of Muramatsu et al. [M. Muramatus, T. Onishi, S. Makino, Y. Hayashi and S. Fujii, J. of Biochem., 58, 214 (1965)]. The data summarized in Table 1 are expressed in terms of molar concentration (ID50) of the test compound which inhibits 50% of the activity of each enzyme to hydrolyze TAME (tosylalginine methyl ester). The compound No. corresponds to the compound number shown in Examples.

[3] = target: T2, C1r (Homo sapiens, UniProt P00736); experiment: biochemical; details: molar concentration inhibiting 50% of AAME hydrolysis; read-out: ID50 C1r (Anti-C1 activity)
T2 sequence (P00736 464-705 limits assumed): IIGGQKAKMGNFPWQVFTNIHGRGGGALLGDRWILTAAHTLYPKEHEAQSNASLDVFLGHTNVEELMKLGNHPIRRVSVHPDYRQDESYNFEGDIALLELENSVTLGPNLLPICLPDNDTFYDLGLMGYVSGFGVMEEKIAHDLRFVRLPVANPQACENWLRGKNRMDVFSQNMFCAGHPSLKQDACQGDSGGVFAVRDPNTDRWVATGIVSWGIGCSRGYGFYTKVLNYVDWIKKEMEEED
T2 sequence (P00736 18-463 partner limits assumed): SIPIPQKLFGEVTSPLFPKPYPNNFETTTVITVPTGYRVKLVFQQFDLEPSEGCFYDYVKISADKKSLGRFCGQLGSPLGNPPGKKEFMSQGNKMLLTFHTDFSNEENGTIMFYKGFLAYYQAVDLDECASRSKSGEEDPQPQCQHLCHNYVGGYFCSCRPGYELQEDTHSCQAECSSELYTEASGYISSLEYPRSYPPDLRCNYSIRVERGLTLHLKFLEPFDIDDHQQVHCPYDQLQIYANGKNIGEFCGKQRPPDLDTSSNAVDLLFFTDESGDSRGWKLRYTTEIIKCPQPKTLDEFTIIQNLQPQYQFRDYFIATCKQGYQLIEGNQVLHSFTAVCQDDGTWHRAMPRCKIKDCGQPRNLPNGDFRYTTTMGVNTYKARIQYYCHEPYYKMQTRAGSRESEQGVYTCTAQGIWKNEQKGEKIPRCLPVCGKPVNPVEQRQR

[4] = target: Plasmin (Homo sapiens, UniProt P00747); experiment: Anti-plasmin activity (hydrolysis of TAME); type: biochemical; details: molar concentration inhibiting 50% of TAME hydrolysis; read-out: ID50 plasmin
Procedure: The anti-trypsin, anti-plasmin, anti-kallikrein and anti-thrombin activities were determined according to the method of Muramatsu et al. [M. Muramatus, T. Onishi, S. Makino, Y. Hayashi and S. Fujii, J. of Biochem., 58, 214 (1965)]. […] The compound No. corresponds to the compound number shown in Examples.

[5] = system: complement; experiment: Inhibition of complement mediated hemolysis; type: cell-based
Procedure: The complement mediated hemolysis is widely used as a means to determine the titration of complement. The principle of this method is based on the fact that hemolysis is caused by the activation of complement, when the latter is added to a complex (immune complex) of erythrocytes and the antibody thereof. The degree of hemolysis varies in proportion to the amount of complement added. Therefore, when a known amount of complement admixed with a C1 esterase inhibitor is used, the hemolysis must be suppressed in proportion to the inhibitory activity.
The anti-C1 esterase (C1r, C1s) activity was determined according to the method of Okamura et al. [K. Okamura, M. Muramatsu and B. Fujii, Biochem. Biophys. […] The figures in Table 2 have the following meanings: […]

[6] = target: T3, C1s (Homo sapiens, UniProt P09871); experiment: Anti-C1s activity (hydrolysis of ATEE); type: biochemical; details: molar concentration inhibiting 50% of ATEE hydrolysis; read-out: ID50 C1s (Anti-C1 activity)
T3 sequence (P09871 438-688 limits assumed): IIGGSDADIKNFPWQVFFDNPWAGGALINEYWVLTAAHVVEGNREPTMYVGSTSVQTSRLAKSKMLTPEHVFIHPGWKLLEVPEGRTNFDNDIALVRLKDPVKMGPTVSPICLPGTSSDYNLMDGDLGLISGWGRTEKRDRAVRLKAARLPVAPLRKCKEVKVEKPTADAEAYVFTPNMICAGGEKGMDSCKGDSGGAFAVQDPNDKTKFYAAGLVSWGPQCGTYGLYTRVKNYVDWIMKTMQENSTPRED
T3 sequence (P09871 16-437 partner limits assumed): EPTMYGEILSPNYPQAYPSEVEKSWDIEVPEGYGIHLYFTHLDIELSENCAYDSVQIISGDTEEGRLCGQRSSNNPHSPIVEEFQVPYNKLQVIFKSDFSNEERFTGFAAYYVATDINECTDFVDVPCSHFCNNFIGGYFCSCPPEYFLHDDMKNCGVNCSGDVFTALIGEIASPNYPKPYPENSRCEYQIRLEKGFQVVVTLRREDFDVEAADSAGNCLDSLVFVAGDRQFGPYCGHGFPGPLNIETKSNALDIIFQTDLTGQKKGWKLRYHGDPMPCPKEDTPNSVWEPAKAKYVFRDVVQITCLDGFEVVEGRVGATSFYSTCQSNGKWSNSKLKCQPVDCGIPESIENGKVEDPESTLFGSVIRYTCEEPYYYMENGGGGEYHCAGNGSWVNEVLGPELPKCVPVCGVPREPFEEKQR
Procedure: The anti-C1 esterase (C1r, C1s) activity was determined according to the method of Okamura et al. [K. Okamura, M. Muramatsu and B. Fujii, Biochem. Biophys. Acta, 295, 252-257 (1973)]. The inhibition of complement mediated hemolysis was determined according to the method of Baker et al. [B. R. Baker and E. H. Erickson, J. Med. Chem. 12, 408-414 (1969)]. The figures in Table 2 have the following meanings:
C1s: Molar concentration of the test compound which inhibits 50% of the ability of C1s to hydrolyse ATEE (acetyltyrosin ethyl ester) (ID50).

[7] = system: Kallikrein; experiment: Anti-kallikrein activity (hydrolysis of TAME); type: biochemical; details: for IC50: molar concentration inhibiting 50% of TAME hydrolysis, read-out: ID50 kallikrein
Procedure: as §1

[8] = molar concentration inhibiting 50% of TAME hydrolysis

Sequence of Plasmin (P00747 581-810 limits assumed, species assumed): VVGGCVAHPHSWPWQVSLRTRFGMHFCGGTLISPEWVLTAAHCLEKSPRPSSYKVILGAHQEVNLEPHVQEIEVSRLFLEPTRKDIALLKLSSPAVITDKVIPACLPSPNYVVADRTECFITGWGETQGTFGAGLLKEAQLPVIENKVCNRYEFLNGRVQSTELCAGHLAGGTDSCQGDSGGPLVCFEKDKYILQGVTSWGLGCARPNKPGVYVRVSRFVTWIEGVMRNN
Sequence of Plasmin (P00747 97-580 partner limits assumed, species assumed): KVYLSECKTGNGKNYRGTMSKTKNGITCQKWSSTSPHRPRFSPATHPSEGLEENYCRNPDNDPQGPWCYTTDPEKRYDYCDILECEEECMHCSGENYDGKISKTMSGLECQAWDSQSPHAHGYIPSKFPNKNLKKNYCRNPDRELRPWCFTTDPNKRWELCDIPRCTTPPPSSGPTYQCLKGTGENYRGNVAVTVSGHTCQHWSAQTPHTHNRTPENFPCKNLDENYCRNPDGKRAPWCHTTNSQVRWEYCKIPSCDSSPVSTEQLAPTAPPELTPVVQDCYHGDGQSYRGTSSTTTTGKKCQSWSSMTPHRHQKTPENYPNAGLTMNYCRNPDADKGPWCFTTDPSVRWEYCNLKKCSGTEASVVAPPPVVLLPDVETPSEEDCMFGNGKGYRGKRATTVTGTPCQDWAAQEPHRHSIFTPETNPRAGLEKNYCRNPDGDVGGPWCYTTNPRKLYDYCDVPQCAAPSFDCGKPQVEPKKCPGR

Compound | IC50 [1, 8] | IC50 [2] | IC50 [3] | IC50 [4] | Inhibition of complement mediated hemolysis (%) ([5]; 1 × 10^-5) | Inhibition of complement mediated hemolysis (%) ([5]; 1 × 10^-6) | Inhibition of complement mediated hemolysis (%) ([5]; 1 × 10^-7) | IC50 [6] | IC50 [7] | IC50 [1] | percentage inhibition of kallikrein ([7]; figure in parentheses, at 1×10^-5 M, TAME) | inhibition at 10 µM ([1]; figure in parentheses, at 1×10^-5 M, TAME, read-out: percentage inhibition of thrombin)
CCNC(=NC)NCc1ccc(C(=O)Oc2ccc3cc(C(=N)N)ccc3c2)o1 [compound 7] | 2000 nM | 2000 nM | 1000 nM | 700 nM | 100% | 100% | 98% | 2000 nM | 400 nM |  |  | 
N=C(N)c1ccc2cc(OC(=O)c3ccc(CN)o3)ccc2c1 [compound 33] |  | 500 nM | 700 nM | 400 nM | 97% | 97% | 81% | 2000 nM | 4000 nM | 3000 nM |  | 
N=C(N)c1ccc2cc(OC(=O)c3ccc(CNC(=O)c4cccnc4)o3)ccc2c1 [compound 16] | 400 nM | 1000 nM | 400 nM | 1000 nM | 100% | 100% | 97% | 300 nM | 400 nM |  |  | 
N=C(N)c1ccc2cc(OC(=O)c3ccc(CNC(=O)CCOCc4ccccc4)o3)ccc2c1 [compound 18] | 500 nM | 900 nM | 300 nM | 500 nM | 100% | 100% | 97% | 3000 nM | 500 nM |  |  | 
N=C(N)NCCc1ccc(C(=O)Oc2ccc3cc(C(=N)N)ccc3c2)o1 [compound 9] | 1000 nM | 900 nM | 400 nM | 6000 nM | 100% | 100% | 94% | 3000 nM |  |  | 47% | 
N=C(N)NCc1ccc(C(=O)Oc2ccc3cc(C(=N)N)ccc3c2)s1 [compound 28] |  | 4000 nM | 2000 nM | 9000 nM | 100% | 82% | 35% | 3000 nM | 4000 nM |  |  | 46%
N=C(N)c1ccc2cc(OC(=O)c3ccc(CCNC(=O)C4CCC(CN)CC4)o3)ccc2c1 (stereo not drawn) [compound 39] | 2000 nM | 800 nM | 400 nM | 400 nM | 100% | 100% | 71% | 4000 nM | 500 nM |  |  | 
